Like-named read-outs stand apart in the source and are kept apart here.
Key:
[1] = test system: kidney tissue; conditions: rat, iv before ischaemia (riluzole 5 mg/kg, lidocaine 1 mg/kg, lamotrigine 20 mg/kg)
Protocol: (§1) Additional studies were performed on kidney tissue in 48 isoflurane-anaesthetised, male Wistar albino rats (300-350 g). […] A further ten minutes was allowed for drug circulation prior to the induction of ischaemia. Tissue ischaemia was produced in all animals by occluding the renal artery to the left kidney. Immediately prior to occlusion, a 1,000 unit bolus of IV heparin was injected to prevent blood clotting and to permit reperfusion. Occlusion was maintained for 3 hours following which, in 6 animals in each group, the occlusion was released and reperfusion of the kidney was allowed. Samples of reperfused tissue were excised 45 minutes following reperfusion. Samples of non-reperfused ischaemic tissue were excised 3 hours post occlusion. Samples of ischaemic tissue and of reperfused tissue were taken from different animals. Samples of non-ischaemic, non-treated tissue were excised from the right kidney of the non-treated group.
In addition, persistent sodium current blockade was assessed for its affect on kidney tissue DNA fragmentation during ischaemia and reperfusion. […] All panels were illuminated by light with wavelength around 520 nm to show DNA fragmentation.

[2] = test system: kidney tissue; conditions: rat; for kidney glutathione levels compared with non-treated reperfused group: 3 h ischaemia and 45 min reperfusion (FIG. 9)
Protocol: as §1
Persistent sodium current blockade was evaluated for its effect on kidney tissue glutathione levels during ischaemia and reperfusion.

[3] = 3 hours of ischaemia and 45 minutes of reperfusion (FIG. 10)
[4] = 3 hours of ischaemia and no reperfusion (FIG. 10)
[5] = iv before ischaemia (riluzole 5 mg/kg, lidocaine 1 mg/kg, lamotrigine 20 mg/kg)

SMILES | damaged nuclei (DNA fragmentation) in renal tubules compared with non-treated tissue [1, 3] | damaged nuclei (DNA fragmentation) in renal tubules compared with non-treated tissue [1, 4] | kidney glutathione levels compared with non-treated reperfused group [2, 5] | kidney glutathione levels compared with non-treated, non-ischaemic and non-reperfused group ([2]; iv before ischaemia (riluzole 5 mg/kg, lidocaine 1 mg/kg), 3 h ischaemia and 45 min reperfusion (FIG. 9, vs 901)) | kidney glutathione levels after ischaemia ([2]; iv before ischaemia (riluzole 5 mg/kg, lidocaine 1 mg/kg, lamotrigine 20 mg/kg), 3 h renal artery occlusion, no reperfusion (FIG. 8))
Nc1nnc(-c2cccc(Cl)c2Cl)c(N)n1 [lamotrigine] | the reduction in damaged nuclei is still significant | the reduction in damaged nuclei is still significant | substantially higher |  | 
CCN(CC)CC(=O)Nc1c(C)cccc1C [lidocaine] | considerably fewer damaged nuclei | considerably fewer damaged nuclei | significantly higher | not significantly different | not significantly reduced

Reference: patent US8906919B2, “Treatment of non-neuronal and non-myocardial cell, tissue and organ damage and associated pain with persistent sodium current blockers” (Ozteo Pty Ltd, priority 2009, dated 2014)
